Measured values taken from US8101408B2, “Insecticidal extract from legume plants and method of preparing the same” (Her Majesty the Queen in right of Canada, as represented by …, priority 2005, dated 2012).
Values joined by “and” are separate entries in the source; they are usually repeats but may differ in a detail not shown here. Identical values can stand only once. “Also recorded” adds a separate entry of the source. Like-named read-outs stand apart in the source and are kept apart here.

Legend:
Sitophilus oryzae [1] = assay type: in vivo; details: for Mean survival time (days ± SE) / LD90 (%): saponin:peptide ratio 1:0; for LD90 (%): held three days on treated wafers, at 7 days; for mortality / toxicity to the rice weevil (in words): used alone
Procedure: (§1) Reduction in feeding activity elicited by the experimental samples was compared to food consumption of untreated controls, obtained by weighing the disks before and after exposure to insects and expressed as percent feeding relative to the control. Bioassay can also include insecticidal measurements (lethality with rice weevil).
(§2) Flour disks (ca. 0.1 g/disk) were weighed before and after exposure to the insects. […] Antifeedant activity was determined by expressing consumption of treated disks as a percentage of control disks (70% ethanol). Positive controls using the same C8 extract were run with each bioassay.
Probit analysis (Polo-PC, LeOra Software, Berkeley, Calif., U.S.A.) was used to estimate the concentrations required to kill 50 and 90% of the population after seven days. For the experiments that used a single dose, the mean survival time was estimated using Kaplan-Meier survival analysis (SigmaStat 3.0, SPSS Inc, Chicago, Ill., U.S.A.).

Sitophilus oryzae [2] = details: sample from a Japanese scientist; Bodnaryk et al., U.S. Pat. No. 5,955,082; cited from earlier work
Sitophilus oryzae [3] = assay: Flour disk antifeedant bioassay with rice weevils (food consumption as % of control; EC50/EC90 for feeding reduction); assay type: in vivo; details: for food consumption, initial treatment: Table 20, saponin alone; for food consumption, peptide to saponin treatment ratio 1:9 / food consumption, peptide to saponin treatment ratio 1:1 / food consumption, peptide to saponin treatment ratio 9:1: peptide source AIEX YM3; for antifeedant activity (in words): rice weevil flour disk bioassay; for EC90 (%) to reduce feeding by 90%: three days on treated wafers; for synergy with pea peptides (in words): single dose tests, pea peptide to saponin treatment ratios of 9:1, 1:1 and 1:9
Procedure: The bioactivity of separated fractions was determined primarily by a flour disk antifeedant bioassay with the rice weevil (Sitophilus oryzae), an insect pest of stored products.
A glass column (1.2 cm internal diameter×20.5 cm length) equipped with a solvent reservoir and stopcock was filled with silica gel (Mallinckrodt SilicAR cc-7) using a slurry of the silica gel in chloroform (Merck OmniSolv containing 1% ethanol). The top of the bed was protected with sea sand. C8 powder (130 mg) was applied to the column, after mixing with silica gel, as a 1.25 cm band. Using a slight positive air pressure to maintain reasonable flow rates, the column was eluted with chloroform (75 ml) then with 75 ml volumes of various mixtures of chloroform and methanol followed by pure methanol (Table 1). The column was eluted with more methanol (75 ml) and finally with two additional volumes of methanol (250 ml each). […] A final evaporation was performed with a Savant apparatus (43° C.). The tubes were re-weighed, capped and transferred to the bioassay laboratory. Each sample was dissolved in 70% ethanol (0.5 ml) and 0.2 ml of that solution was added to the wheat flour (200 mg) for preparation of the disks. […] Control disks were prepared with 0.2 ml of 70% ethanol.
A test insecticidal compound is incorporated into flour disks. […] A typical dose in many of the above examples is 1.6 milligram/200 milligram flour. Wheat flour is typically used.
as §1, §2
The estimate and confidence limits are the values of X where the line Y=Yo crosses the regression line and its upper and lower confidence curves, respectively. The formulae can be expressed in terms of outputs from the regression analysis. Let a and b be the estimates of the intercept and slope, MSE the mean square error, n the number of observations, t the (2-sided) critical value of t with n−2 degrees of freedom, V(b) the variance (standard error squared) of b and D=b^2−t^2V(b)). Then the estimate of X is Xo=(Yo−a)/b and the confidence limits for X are X0+t^2V(b)(Y0− Y)/bD±H where H^2=t^2└D·MSE/n+V(b)(Y0− Y)^2┘/D^2. The interval is not symmetric about Xo. […]

[4] = target: calcium-dependent potassium channels (Homo sapiens, UniProt Q12791); details: mammalian in vitro experiments (McManus et al.); cited from earlier work
calcium-dependent potassium channels, sequence (Q12791 whole entry): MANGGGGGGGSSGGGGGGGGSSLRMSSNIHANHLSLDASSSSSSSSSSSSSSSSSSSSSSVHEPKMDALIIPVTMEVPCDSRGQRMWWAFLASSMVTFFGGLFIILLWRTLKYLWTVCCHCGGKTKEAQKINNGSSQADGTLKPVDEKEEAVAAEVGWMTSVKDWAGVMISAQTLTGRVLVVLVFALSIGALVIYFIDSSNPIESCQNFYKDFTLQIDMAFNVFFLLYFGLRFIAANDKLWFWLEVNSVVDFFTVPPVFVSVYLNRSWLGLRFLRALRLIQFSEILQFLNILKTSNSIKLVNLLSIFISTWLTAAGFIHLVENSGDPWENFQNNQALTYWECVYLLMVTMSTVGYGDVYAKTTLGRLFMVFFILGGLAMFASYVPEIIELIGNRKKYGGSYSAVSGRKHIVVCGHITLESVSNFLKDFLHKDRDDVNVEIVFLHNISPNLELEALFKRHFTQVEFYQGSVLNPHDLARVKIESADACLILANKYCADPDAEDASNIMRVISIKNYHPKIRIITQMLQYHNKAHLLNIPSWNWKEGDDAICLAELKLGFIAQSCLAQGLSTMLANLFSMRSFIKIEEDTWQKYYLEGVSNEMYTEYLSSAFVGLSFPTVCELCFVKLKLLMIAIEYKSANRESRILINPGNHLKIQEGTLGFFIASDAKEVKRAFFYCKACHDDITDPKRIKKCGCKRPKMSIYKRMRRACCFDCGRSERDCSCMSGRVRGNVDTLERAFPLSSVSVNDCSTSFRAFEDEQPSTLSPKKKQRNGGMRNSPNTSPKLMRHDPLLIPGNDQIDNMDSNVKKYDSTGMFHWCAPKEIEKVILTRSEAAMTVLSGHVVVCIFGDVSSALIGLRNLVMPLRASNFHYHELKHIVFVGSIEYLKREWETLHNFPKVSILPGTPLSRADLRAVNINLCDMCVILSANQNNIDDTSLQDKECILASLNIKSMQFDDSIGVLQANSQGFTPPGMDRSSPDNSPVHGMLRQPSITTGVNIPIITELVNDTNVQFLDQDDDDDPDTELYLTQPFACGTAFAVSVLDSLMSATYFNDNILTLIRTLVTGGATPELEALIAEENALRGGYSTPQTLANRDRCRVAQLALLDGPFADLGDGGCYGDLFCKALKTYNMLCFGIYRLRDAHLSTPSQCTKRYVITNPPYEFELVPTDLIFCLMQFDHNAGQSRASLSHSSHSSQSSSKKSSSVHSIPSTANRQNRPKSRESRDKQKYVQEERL
calcium-dependent potassium channels, sequence (Q16558 whole entry partner): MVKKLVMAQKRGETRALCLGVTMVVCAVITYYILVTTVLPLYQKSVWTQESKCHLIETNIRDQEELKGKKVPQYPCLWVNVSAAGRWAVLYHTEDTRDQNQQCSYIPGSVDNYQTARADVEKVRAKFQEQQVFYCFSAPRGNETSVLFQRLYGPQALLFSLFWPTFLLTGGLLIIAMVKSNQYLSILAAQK

[5] = C8 material as peptide source, total dose 1.6 mg/200 mg of flour
[6] = C8 material as peptide source, total dose 1.6 mg/200 mg of flour (D-I: 0.8 mg/100 mg)
[7] = total dose 1.6 mg/200 mg of flour
[8] = total dose 1.6 mg/200 mg of flour (D-I: 0.8 mg/100 mg)
[9] = saponin:peptide ratio 1:0 (saponin or soap alone), concentration 0.8%
[10] = separate experiment, different batch of C8 material as peptide source, total dose 1.6 mg/200 mg of flour

Row | Compound | Mean survival time (days ± SE) (Sitophilus oryzae [1]; 0.8%, Kaplan-Meier) [a days] | food consumption, peptide to saponin treatment ratio 9:1 (values in brackets) (Sitophilus oryzae [3]; [6]) | food consumption, initial treatment (Sitophilus oryzae [3]; 1.6 mg/200 mg of flour) | food consumption, peptide to saponin treatment ratio 1:9 (Sitophilus oryzae [3]; [7]) | food consumption, peptide to saponin treatment ratio 1:1 (Sitophilus oryzae [3]; [8]) | food consumption, peptide to saponin treatment ratio 9:1 (Sitophilus oryzae [3]; [8]) | antifeedant activity (in words) (Sitophilus oryzae [3]) | Feeding as a percent of control (%) (Sitophilus oryzae [3]; [9]) | synergy with pea peptides (in words) (Sitophilus oryzae [3]) | also measured
1 | C[C@@H]1O[C@@H](O[C@H]2[C@H](O[C@H]3[C@H](O[C@H]4CC[C@@]5(C)[C@@H](CC[C@]6(C)[C@@H]5CC=C5[C@@H]7CC(C)(C)C[C@@H](O)[C@]7(C)CC[C@]56C)[C@@]4(C)CO)O[C@H](C(=O)O)[C@@H](O)[C@@H]3O)O[C@H](CO)[C@H](O)[C@@H]2O)[C@H](O)[C@H](O)[C@H]1O [Soyasaponin I, soyasaponin I] | 13.8 | (29) % of control | 98 % of control | 16 % of control | 23 % of control | 24 % of control | inactive; also recorded: no significant reduction in feeding | 92% and 98% |  | LD90 (%) (Sitophilus oryzae [1]): >>12 ^ %; mortality / toxicity to the rice weevil (in words) (Sitophilus oryzae [1]): no mortality; mortality / toxicity to the rice weevil (in words) (Sitophilus oryzae [1]; listed as soyasaponin I): no increase in mortality; activity in the rice weevil bioassays (in words) (Sitophilus oryzae [2]): nearly inactive; food consumption, peptide to saponin treatment ratio 1:1 (values in brackets) (Sitophilus oryzae [3]; [5]): (27) % of control; food consumption, peptide to saponin treatment ratio 1:9 (values in brackets) (Sitophilus oryzae [3]; [5]): (26) % of control; food consumption in the rice weevil bioassay (Sitophilus oryzae [3]; RPC isolate, 0.43 mg dose, disks from one-half the usual amount of flour (100 mg)): 100%; food consumption (% of control) (Sitophilus oryzae [3]; Table 3, dose 1.6 mg/200 mg flour, listed as soyasaponin I (free acid)): 83 % of control and 114 % of control; feeding, % of the control (Sitophilus oryzae [3]; highest concentration tested, 12.8%): 75 % of the control; EC90 (%) to reduce feeding by 90% (Sitophilus oryzae [3]; saponin:peptide ratio 1:0): >>12 ^ %; food consumption, peptide to saponin treatment ratio 1:1 (values in brackets) (Sitophilus oryzae [3]; [10]): (33)^7 % of control; food consumption, peptide to saponin treatment ratio 1:9 (values in brackets) (Sitophilus oryzae [3]; [10]): (42)^7 % of control; food consumption, peptide to saponin treatment ratio 9:1 (values in brackets) (Sitophilus oryzae [3]; [10]): (44)^7 % of control
2 | Cc1occc(=O)c1O [maltol, 3-hydroxy-2-methyl-4-pyrone] |  |  |  |  |  |  | inactive |  |  | f.c. (food consumption) (Sitophilus oryzae [3]; Table 4, 1.6 mg/200 mg of flour): 110 % of control
3 | CCCCCCCCCCCC(=O)OCCOCCOCCOCCOCCOCCOCCOCCOCCOCCOCCOCCOCCOCCOCCOCCOCCOCCOCCOCCOCC(OCCOCCOCCOCCOCCOCCOCCOCCOCCOCCOCCOCCOCCOCCOCCOCCOCCOCCOCCOCCO)C1OCC(OCCOCCOCCOCCOCCOCCOCCOCCOCCOCCOCCOCCOCCOCCOCCOCCOCCOCCOCCOCCO)C1OCCOCCOCCOCCOCCOCCOCCOCCOCCOCCOCCOCCOCCOCCOCCOCCOCCOCCOCCOCCO (stereo not drawn) [Tween 20, polyoxyethylene(20)sorbitan monolaurate] | 13.7 |  |  |  |  |  |  | 106% |  | mortality / toxicity to the rice weevil (in words) (Sitophilus oryzae [1]): Neither Tween or dish soap were toxic
4 | β-escin | 6.3 ± 0.2 | (14) % of control |  | 18 % of control | 17 % of control | 17 % of control |  | 18% and 30% |  | LD90 (%) (Sitophilus oryzae [1]): 1.74%; food consumption, peptide to saponin treatment ratio 1:1 (values in brackets) (Sitophilus oryzae [3]; [5]): (15) % of control; food consumption, peptide to saponin treatment ratio 1:9 (values in brackets) (Sitophilus oryzae [3]; [5]): (16) % of control; EC90 (%) to reduce feeding by 90% (Sitophilus oryzae [3]; saponin:peptide ratio 1:0): 1.5%
5 | CCCCCCCCCCCCCCCC(=O)OC[C@@H](O)COP(=O)([O-])OCC[N+](C)(C)C [L-16:0] |  |  |  |  |  |  |  |  |  | food consumption in the rice weevil bioassay (Sitophilus oryzae [3]; 1.6 mg/200 mg flour, relative to control): 102%; food consumption (Sitophilus oryzae [3]; lysolecithin-saponin (soyasaponin I) mixtures, similar experiments, total dose 0.016-1.6 mg/200 mg of flour): 84-102%; food consumption, expressed as % of untreated control (Sitophilus oryzae [3]; mixtures of 90% lysolecithin and 10% peptides (AIEX YM3), total dose 0.016-1.6 mg/200 mg of flour): 71-115%
6 | C[C@@H]1O[C@@H](O[C@H]2[C@H](O[C@H]3[C@H](O[C@H]4CC[C@@]5(C)[C@@H](CC[C@]6(C)[C@@H]5CC=C5[C@@H]7CC(C)(C)CC(=O)[C@]7(C)CC[C@]56C)[C@@]4(C)CO)O[C@H](C(=O)O)[C@@H](O)[C@@H]3O)O[C@H](CO)[C@H](O)[C@@H]2O)[C@H](O)[C@H](O)[C@H]1O [Dehydrosoyasaponin I, dehydrosoyasaponin I] |  | (17) % of control |  |  | 34 % of control | 32 % of control |  |  | clearly synergistic | Mean survival time (days ± SE) (Sitophilus oryzae [1]; 0.6% used in this test): 13.8 ± 0.2 a days; action on calcium-dependent potassium channels (in words) [4]: high-affinity activator; potency as a potassium channel opener relative to S-I [4]: 60 fold; food consumption in the rice weevil bioassay (Sitophilus oryzae [3]; RPC isolate, […]100 mg of flour (equivalent to 1.28 mg/200 mg)): 65%; Feeding as a percent of control (%) (Sitophilus oryzae [3]; saponin:peptide ratio 1:0, 0.6% used in this test): 65%
7 | C[C@@H]1O[C@@H](O[C@H]2[C@H](O[C@H]3CC[C@@]4(C)[C@@H](CC[C@]5(C)[C@@H]4CC=C4[C@@H]6CC(C)(C)CC[C@]6(C(=O)O[C@@H]6O[C@H](CO[C@@H]7O[C@H](CO)[C@@H](O[C@@H]8O[C@@H](C)[C@H](O)[C@@H](O)[C@H]8O)[C@H](O)[C@H]7O)[C@@H](O)[C@H](O)[C@H]6O)CC[C@]45C)[C@]3(C)CO)OC[C@H](O)[C@@H]2O)[C@H](O)[C@H](O)[C@H]1O [Hederacoside C, hederacoside C] | 13.9 |  | 117 % of control | 58 % of control | 47 % of control | 44 % of control | inactive | 117% | clearly synergistic | antifeedant activity (in words) (Sitophilus oryzae [3]; listed as hederacoside C): no significant reduction in feeding
8 | C[C@@H]1O[C@@H](O[C@H]2[C@H](O[C@H]3CC[C@@]4(C)[C@@H](CC[C@]5(C)[C@@H]4CC=C4[C@@H]6CC(C)(C)CC[C@]6(C(=O)O)CC[C@]45C)[C@]3(C)CO)OC[C@H](O)[C@@H]2O)[C@H](O)[C@H](O)[C@H]1O [α-Hederin, α-hederin] |  |  | 36 % of control | 26 % of control | 26 % of control | 24 % of control |  | 36% |  | 
9 | CC1(C)[C@@H](O[C@H]2O[C@H](C(=O)O)[C@@H](O)[C@H](O)[C@H]2O[C@@H]2O[C@H](C(=O)O)[C@@H](O)[C@H](O)[C@H]2O)CC[C@]2(C)[C@H]3C(=O)C=C4[C@@H]5C[C@@](C)(C(=O)O)CC[C@]5(C)CC[C@@]4(C)[C@]3(C)CC[C@@H]12 [Glycyrrhizic acid, glycyrrhizic acid] |  |  | 96 % of control | 39 % of control | 45 % of control | 33 % of control | inactive; also recorded: no significant reduction in feeding | 96% | clearly synergistic | 
